Source: US8822541B2, “Use of targeted nitroxide agents in mitigating or treating radiation injury” (University of Pittsburgh—Of the Commonwealth System of …, priority 2008, dated 2014)
Entries after “also recorded” stand apart in the source; their conditions may differ.

Tests used:
[1] = tested on: MEF cells from wild-type mouse embryos; assay: Toxicity of JP4-039 in wild-type MEF cultures; type: cell-based; conditions: up to 10 μM, 48 hours
Protocol: To assess the therapeutic potential of JP4-039, tests for safety and protective activity were performed. FIGS. 35 and 36 show the results of tests to evaluate whether varying concentrations of JP4-039 produce toxic effects after 48 hours in cultures of MEF cells prepared from Ercc1^−/− or wild-type mouse embryos, respectively.

32D cl 3 cells = assay: Clonogenic radiation survival curves of 32D cl 3 cells (PLDR study); type: cell-based, mouse; set-up: key to D0: D0 in Gy, from single-hit multitarget model
Protocol: (§1) 32D cl 3 cells were resuspended at 1×10^5 cells/mL in 10×100-mm tubes and divided into three groups: radiation only, post-irradiation treatment with 10 μM JP4-039, and post-irradiation treatment with 10 μM TEMPO. Cells were irradiated to doses ranging from 0 to 8 Gy and were plated immediately after irradiation.
as §1, with “5×10^5” for “1×10^5”, “then incubated in exponentially growing colonies (flasks) for 24, 48 and 72 h in a high-humidity incubator at 37° C. with 95% air/5% CO2.” for “plated immediately after irradiation.”
32D cl 3 cells were resuspended at 5×10^5 cells/mL in 10×100-mm tubes. Cells were irradiated to doses ranging from 0 to 8 Gy and were then centrifuged at 1500 RPM for 10 minutes and incubated in vertical tubes held tight in pellets with a total of 5×10^5 cells/pellet for 24, 48 and 72 h in a high-humidity incubator at 37° C. with 95% air/5% CO2.
Cells incubated under either logarithmic or PLDR conditions were resuspended at 24, 48 and 72 h after irradiation, and cell viability was assessed using an automated cell viability counter (Beckman Coulter, Fullerton, Calif.). Subsequently, at 24, 48, 72 h, cells in pellets and flasks were resuspended and treated with 10 μM JP4-039, 10 μM TEMPO, or no treatment and were plated in triplicate in semisolid methylcellulose-containing medium at viable cell concentrations ranging from 500-40,000 cells/mL. Cells were incubated in a high-humidity incubator at 37° C. with 95% air/5% CO2 for 7 d and colonies of greater than 50 cells were scored according to published methods (Epperly M W, Gretton J E, Sikora C A, Jefferson M, Bernarding M, Nie S, et al.: Mitochondrial localization of superoxide, dismutase is required for decreasing radiation-induced cellular damage. Radiat Res. 160: 568-578, 2003).
Data from radiation survival curves were analyzed using the linear-quadratic and single-hit, multitarget models (Epperly M, et al., Prevention of late effects of irradiation lung damage by manganese superoxide dismutase gene therapy. Gene Ther. 5: 196-208, 1998). Results are presented as the mean±standard error of the mean from at least three measurements. Student's t test and two-way ANOVA were used to compare means of different groups where appropriate.

rat ileal mucosa = assay: Intestinal mucosal permeability assay (FD4) after hemorrhagic shock; type: in vivo; conditions: intraluminal
Protocol: Intestinal mucosal permeability assay. Animals were allowed access to water but not food for 24 h prior to the experiment in order to decrease the volume of intestinal contents. The rats were instrumented as described above. A midline laparotomy was performed and the small intestine was exteriorized from the duodenojejunal junction to the ileocecal valve. A small incision was made on the antimesenteric aspect of the proximal small intestine and saline solution (1.5 ml) was injected. The bowel was ligated proximally and distally to the incision with 4-0 silk (Look, Reading, Pa.).
The small intestine was compressed gently in aboral direction along its length to displace intestinal contents into the colon. Starting 5 cm from the ileocecal valve, the ileum was partitioned into six contiguous water-tight segments. […]
The remaining four other segments were injected with solutions containing either 4-hydroxy-2,2,6,6-tetramethylpiperidine-N-oxyl (TEMPOL) or one of the Gramicidin S-based compounds. Four different final concentrations of TEMPOL in normal saline were evaluated: 0.1, 1, 5 and 20 mM. […]
Fluorescence of FD4 in the solution inside the beaker and within each gut sac was measured using a fluorescence spectrophotometer (LS-50, Perkin-Elmer, Palo Alto, Calif.) at an excitation wavelength of 492 nm and an emission wavelength of 515 nm. […]

[2] = 0 hours, 10 μM post-irradiation

Row | Structure (SMILES) | toxicity [1] | D0 (32D cl 3 cells; [2]) | Ñ (32D cl 3 cells; [2]) | radiation mitigation (32D cl 3 cells; 48 or 72 h after irradiation) | D0 (32D cl 3 cells; 24 hours (Flask), 10 μM) | Ñ (32D cl 3 cells; 24 hours (Flask), 10 μM) | D0 (32D cl 3 cells; 24 hours (Pellet), 10 μM) | Ñ (32D cl 3 cells; 24 hours (Pellet), 10 μM) | hemorrhagic shock-induced mucosal hyperpermeability relative to control (rat ileal mucosa) | potency relative to TEMPOL (rat ileal mucosa) [fold]
1 | CC(C)C[C@@H](/C=C/CC(=O)NC1CC(C)(C)N([O])C(C)(C)C1)NC(=O)OC(C)(C)C [JP4-039, TEMPO-4-yl-(S,E)-5-(tert-butoxycarbonylamino)-7-methyloct-3-enamide] | no signs of toxicity; also recorded: not toxic | 0.91 ± 0.11 | 37.43±7.50 | no statistically significant radiation mitigation | 1.22 ± 0.16 | 10.35±0.33 | 1.12 ± 0.27 | 18.49±3.90 | – | –
2 | CC(C)C[C@@H](/C=C/[C@H](Cc1ccccc1)C(=O)N1CCC[C@H]1C(=O)N[C@H](C(=O)N[C@@H](CCCNC(=O)OCc1ccccc1)C(=O)NC1CC(C)(C)N([O])C(C)(C)C1)C(C)C)NC(=O)OC(C)(C)C [XJB-5-131] | – | – | – | – | – | – | – | – | approximately 60 % of the control value | ~1000
